Source: publication PMC9428149, “Tackling recalcitrant Pseudomonas aeruginosa infections in critical illness via anti-virulence monotherapy” (Nature Communications, 2022)

Legend:
[1] = test system: pyocyanin production in PA14; experiment: Pyocyanin production assay; conditions: PA14; 50µM of each inhibitor (method says 10 μM); vs vehicle
[2] = test system: pqsA promoter (PA14 PpqsA-GFPASV); experiment: pqsA-GFP reporter expression; assay type: cell-based, Pseudomonas aeruginosa; conditions: PA14 PpqsA-GFPASV; 50µM per b210 (method b76 says 10 µM)
Method: The expression levels of pqsA, which is representative of the pqsABCDE operon transcription, were monitored in the presence of the MvfR inhibitors using PA14 cells containing the PpqsA-GFPASV, a reporter construct of the pqsA promoter fused to a short half-life GFP gene in, such that quantitative quenching of fluorescence corresponds to pqsA promoter repression[22],[32],[48]. […] GFP fluorescence levels were measured at λex = 485 nm/λem = 535 nm after 10 seconds of shaking every 15 min up to 12 h. The IC50 of PpqsA-GFP expression levels was performed as above using the same 13 different concentrations (0.0122–50 μM) for each of the 13 compounds tested.

[3] = test system: MvfR-regulated small molecules in PA14; experiment: Production of HAQs, 2-AA, DHQ and AA in PA14 cultures (LC-MS); conditions: PA14, 50µM inhibitor; for % Production AA: anthranilic acid, precursor control
Method: The HAQs HHQ, PQS, HQNO, and non-HAQs: 2-AA and DHQ produced by PA14 cells were quantified in the presence of NAMs. The overnight grown starter culture was diluted 1:100 in 5 mL LB media in a glass tube and was allowed to grow in the presence (50 µM) or absence of compound at 37 °C and 200 rpm in an incubator shaker until OD600 was 3. Bacterial cultures were subsequently mixed 1:1 (400 μL: 400 μL) with 100% methanol containing 20 ppm (20 μg mL^−1) of tetradeutero-PQS (PQS-D4) and 10 ppm of tetradeutero-HHQ (HHQ-D4) in a 1.5 mL Eppendorf tube. The mixture was vortexed for 5 seconds and spun down for 5 minutes at 12,000 x g. A 700 μL aliquot of the supernatant was removed and stored in glass vials at −20 °C until further liquid chromatography-mass spectrophotometry (LC/MS) analysis as previously described in Lepine et al., 2003[66]. LC/MC analysis was performed using a Micromass Quattro II triple quadrupole mass spectrometer (Micromass Canada, Pointe-Claire, Canada) in positive electrospray ionization mode, interfaced to an HP1100 HPLC equipped with a 4.5 × 150 mm reverse-phase C8 column.
GraphPad Prism 9.2.0 software was used to plot the IC50 curve against the percent inhibition of these small molecules’ production at each concentration.

## Cc1cc(F)ccc1NCC(=O)Nc1ccccc1Br [D2]
[1]
  % Production Pyocyanin: 101%
[2]
  % Production pqsA-GFP: 96%

## CCc1ccccc1NCC(=O)Nc1ccc(C#N)cc1 [D3]
[1]
  % Production Pyocyanin: 97%
[2]
  % Production pqsA-GFP: 92%

## Cc1cc(F)ccc1NCC(=O)Nc1ccc(N2CCOCC2)cc1 [D5]
[1]
  % Production Pyocyanin: 102%
[2]
  % Production pqsA-GFP: 100%

## N#Cc1ccc(NC(=O)CNc2cccc(F)c2)cc1 [D6]
[1]
  % Production Pyocyanin: 91%
[2]
  % Production pqsA-GFP: 68%

## Cc1cc(F)ccc1NCC(=O)Nc1ccc(Br)cc1C [D7]
[1]
  % Production Pyocyanin: 89%
[2]
  % Production pqsA-GFP: 70%

## Cc1cc(F)ccc1NCC(=O)Nc1ccc(N2CCCC2=O)cc1 [D9]
[1]
  % Production Pyocyanin: 107%
[2]
  % Production pqsA-GFP: 105%

## Cc1cc(F)ccc1NCC(=O)Nc1cc(F)ccc1F [D10]
[1]
  % Production Pyocyanin: 90%
[2]
  % Production pqsA-GFP: 89%

## Cc1ccc(NC(=O)CNc2ccc(F)cc2C)c(Br)c1 [D12]
[1]
  % Production Pyocyanin: 108%
[2]
  % Production pqsA-GFP: 92%

## Cc1cc(F)ccc1NCC(=O)Nc1cccc(C#N)c1 [D13]
[1]
  % Production Pyocyanin: 100%
[2]
  % Production pqsA-GFP: 90%

## Cc1cc(F)ccc1NCC(=O)Nc1cccc([N+](=O)[O-])c1 [D14]
[1]
  % Production Pyocyanin: 85%
[2]
  % Production pqsA-GFP: 77%

## COc1ccc(NC(=O)CNc2ccc(F)cc2C)cc1 [D15]
[1]
  % Production Pyocyanin: 102%
[2]
  % Production pqsA-GFP: 87%

## N#Cc1ccc(NC(=O)CNc2ccc(Cl)cc2)cc1 [D16]
[1]
  % Production Pyocyanin: 43%
[2]
  % Production pqsA-GFP: 18%

## Cc1ccc(F)cc1NCC(=O)Nc1ccc(C#N)cc1 [D18]
[1]
  % Production Pyocyanin: 69%
[2]
  % Production pqsA-GFP: 28%

## Cc1cc(F)ccc1NCC(=O)Nc1ccc(C(=O)N(C)C)cc1 [D19]
[1]
  % Production Pyocyanin: 109%
[2]
  % Production pqsA-GFP: 100%

## Cc1ccc(NC(=O)CNc2ccc(F)cc2C)c(C)c1 [D21]
[1]
  % Production Pyocyanin: 113%
[2]
  % Production pqsA-GFP: 87%

## Cc1cc(F)ccc1NCC(=O)Nc1cccc(Cl)c1 [D22]
[1]
  % Production Pyocyanin: 96%
[2]
  % Production pqsA-GFP: 71%

## N#Cc1ccc(NCC(=O)Nc2ccc(F)cc2)cc1 [D24]
[1]
  % Production Pyocyanin: 59%
[2]
  % Production pqsA-GFP: 26%

## N#Cc1ccc(NC(=O)CNc2ccccc2F)cc1 [D25]
[1]
  % Production Pyocyanin: 97%
[2]
  % Production pqsA-GFP: 84%

## Cc1ccc(NCC(=O)Nc2ccc(C#N)cc2)cc1F [D28]
[1]
  % Production Pyocyanin: 60%
[2]
  % Production pqsA-GFP: 42%

## CC(=O)c1ccccc1NC(=O)CNc1ccc(F)cc1C [D30]
[1]
  % Production Pyocyanin: 91%
[2]
  % Production pqsA-GFP: 94%

## Cc1cc(NC(=O)CNc2ccc(F)cc2C)ccc1Br [D31]
[1]
  % Production Pyocyanin: 69%
[2]
  % Production pqsA-GFP: 47%

## COc1cccc(NC(=O)CNc2ccc(F)cc2C)c1 [D32]
[1]
  % Production Pyocyanin: 92%
[2]
  % Production pqsA-GFP: 94%

## CC(C)c1ccc(NCC(=O)Nc2ccc(C#N)cc2)cc1 [D33]
[1]
  % Production Pyocyanin: 59%
[2]
  % Production pqsA-GFP: 53%

## N#Cc1ccc(NC(=O)CCNc2ccc(F)cc2)cc1 [D34]
[1]
  % Production Pyocyanin: 91%
[2]
  % Production pqsA-GFP: 80%
[3]
  % Production 2-AA: 113%
  % Production DHQ: 100%
  % Production HHQ: 97%
  % Production HQNO: 96%
  % Production PQS: 97%
  % Production AA: 101%

## N#Cc1ccc(NC(=O)CC(=O)Nc2ccc(F)cc2)cc1 [D36]
[1]
  % Production Pyocyanin: 16%
[2]
  % Production pqsA-GFP: 10%
[3]
  % Production 2-AA: 37%
  % Production DHQ: 68%
  % Production HHQ: 57%
  % Production HQNO: 59%
  % Production PQS: 47%
  % Production AA: 187%

## N#Cc1ccc(NC(=O)C(=O)Nc2ccc(F)cc2)cc1 [D37]
[1]
  % Production Pyocyanin: 106%
[2]
  % Production pqsA-GFP: 97%
[3]
  % Production 2-AA: 103%
  % Production DHQ: 105%
  % Production HHQ: 98%
  % Production HQNO: 99%
  % Production PQS: 110%
  % Production AA: 90%

## Cc1cc(F)ccc1N1CCCC(NC(=O)c2ccc(C#N)cc2)C1 (stereo not shown) [D38]
[1]
  % Production Pyocyanin: 108%
[2]
  % Production pqsA-GFP: 90%
[3]
  % Production 2-AA: 101%
  % Production DHQ: 84%
  % Production HHQ: 98%
  % Production HQNO: 100%
  % Production PQS: 96%
  % Production AA: 54%

## Cc1cc(F)ccc1CCNC(=O)c1ccc(C#N)cc1 [D39]
[1]
  % Production Pyocyanin: 110%
[2]
  % Production pqsA-GFP: 91%
[3]
  % Production 2-AA: 106%
  % Production DHQ: 96%
  % Production HHQ: 96%
  % Production HQNO: 102%
  % Production PQS: 93%
  % Production AA: 68%

## Cc1cc(F)ccc1NC(=O)Cc1ccc(C#N)cc1 [D40]
[1]
  % Production Pyocyanin: 115%
[2]
  % Production pqsA-GFP: 96%
[3]
  % Production 2-AA: 113%
  % Production DHQ: 85%
  % Production HHQ: 102%
  % Production HQNO: 109%
  % Production PQS: 100%
  % Production AA: 81%

## N#Cc1ccc(NC(=O)CCC(=O)Nc2ccc(F)cc2)cc1 [D47]
[1]
  % Production Pyocyanin: 99%
[2]
  % Production pqsA-GFP: 78%
[3]
  % Production 2-AA: 100%
  % Production DHQ: 100%
  % Production HHQ: 95%
  % Production HQNO: 93%
  % Production PQS: 94%
  % Production AA: 42%

## Cc1cc(F)ccc1NC(=O)CC(=O)Nc1ccc(C#N)cc1 [D48]
[1]
  % Production Pyocyanin: 60%
[2]
  % Production pqsA-GFP: 44%
[3]
  % Production 2-AA: 77%
  % Production DHQ: 91%
  % Production HHQ: 96%
  % Production HQNO: 94%
  % Production PQS: 90%
  % Production AA: 59%

## Nc1cc([N+](=O)[O-])ccc1NC(=O)CC(=O)Nc1ccc(Oc2ccccc2)cc1 [D60]
[1]
  % Production Pyocyanin: 6%

## N#Cc1ccc(NC(=O)CC(=O)Nc2cccc(F)c2)cc1 [D72]
[1]
  % Production Pyocyanin: 30%

## N#Cc1ccc(NC(=O)CC(=O)Nc2cccc(C#N)c2)cc1 [D75]
[1]
  % Production Pyocyanin: 49%

## N#Cc1ccc(NC(=O)CC(=O)c2ccc(F)cc2)cc1 [D76]
[1]
  % Production Pyocyanin: 77%

## N#Cc1ccc(NC(=O)CC(=O)Nc2ccc(C#N)cn2)cc1 [D78]
[1]
  % Production Pyocyanin: 14%

## N#Cc1ccc(/C=C/C(=O)Nc2ccc(C#N)cc2)cc1 [D83]
[1]
  % Production Pyocyanin: 114%

## N#Cc1ccc(NC(=O)CC(=O)Cc2ccc(F)cc2)cc1 [D84]
[1]
  % Production Pyocyanin: 102%

## N#Cc1ccc(NC(=O)C=CC(=O)Nc2ccc(F)cc2)cc1 [D86]
[1]
  % Production Pyocyanin: 88%

## N#Cc1ccc(NC(=O)CC(O)Cc2ccc(F)cc2)cc1 (stereo not shown) [D89]
[1]
  % Production Pyocyanin: 95%

## N#Cc1ccc(NC(=O)CC(=O)Nc2ccc(C#N)nc2)cn1 [D91]
[1]
  % Production Pyocyanin: 43%
[2]
  % Production pqsA-GFP: 39%

## N#Cc1ccc(NC(=O)CC(=O)Nc2ccc(Oc3ccccc3)cc2)c(N)c1 [D92]
[1]
  % Production Pyocyanin: 4%
[2]
  % Production pqsA-GFP: 1%

## N#Cc1ccc(NC(=O)CC(Nc2ccc(Oc3ccccc3)cc2)C(F)(F)F)cc1 (stereo not shown) [D93]
[1]
  % Production Pyocyanin: 91%
[2]
  % Production pqsA-GFP: 88%

## CC(F)(C(=O)Nc1ccc(C#N)cc1)C(=O)Nc1ccc(C#N)cc1 [D94]
[1]
  % Production Pyocyanin: 52%
[2]
  % Production pqsA-GFP: 85%

## N#Cc1ccc(NC(=O)C(F)C(=O)Nc2ccc(C#N)cc2)cc1 [D96]
[1]
  % Production Pyocyanin: 34%
[2]
  % Production pqsA-GFP: 42%

## N#Cc1ccc(NC(=O)C(F)(F)C(=O)Nc2ccc(C#N)cc2)cc1 [D97]
[1]
  % Production Pyocyanin: 94%
[2]
  % Production pqsA-GFP: 95%

## O=C(CC(=O)Nc1ccc(C(F)(F)F)cc1)Nc1ccc(Oc2ccccc2)cc1 [D98]
[1]
  % Production Pyocyanin: 42%
[2]
  % Production pqsA-GFP: 29%
